Measured values as given in patent publication US9227962B2, “Heterocyclic substituted-3-heteroarylidenyl-2-indolinone derivative” (Dainippon Sumitomo Pharma Co., Ltd., priority 2013, dated 2016).
Converted amounts (≈) assume the structure as drawn. Read-outs that look alike come from different tables or passages of the source.

Key:
[1] = solubility in buffer solution, HPLC; type: physicochemical; conditions: kinetic from dmso stock
Procedure: A solution of compounds (10 mM in dimethylsulfoxide, 2 μL) was diluted with 50% acetonitrile (198 μL), and this solution was used as a standard solution.
On the other hand, a solution of compounds (10 mM in dimethylsulfoxide, 15 μL) was transferred to a 96 well plate, then solvent was removed in vacuo. Dimethyl sulfoxide (3 μL) was added to dissolve a residual solid, and then buffer solution (pH7.4 or 1.2, 300 μL) was added. The mixture was vigorously stirred for 90 min, then leave it for 16-20 h. An insoluble material was removed, then the solution was analyzed by HPLC. The concentration of compound, which was corresponding to a solubility of the compound, was determined by the comparison with area value between sample and the standard solution.

[2] = system: CD44high FaDu cancer stem cells; assay: sphere assay (sphere formation of CSC); type: cell-based; conditions: Homo sapiens, spheres scored after 10-14 days
Text: CSC isolation with surface markers: Sorting tumor cells based primarily upon the differential expression of the surface marker(s), such as CD44 or CD133, have accounted for the majority of the highly tumorigenic CSCs described to date. CD44^high cells were isolated by FACS according to the methods described in Ponti et al, with slight modification [Ponti, D., et al, Isolation and in vitro propagation of tumorigenic breast cancer cells with stem/progenitor cell properties. Cancer Res, 2005. 65(13); p. 5506-11.], Briefly, after trypsinization and recovery of cells for 30 minutes at 37° C. in growth media, cells were pelleted at 400×g and were resuspended in PBS with 2% FBS and ImM EDTA at 1×10^6 cells/mL. Cells were then incubated on ice with a 1:100 dilution of CD44-FITC (BD Biosicences, San Diego, Calif.) for 15 minutes. Alternatively, CD24-PE (BD Bioscences, San Diego, Calif.) (1:100) was utilized for negative selection. After washing three times, cells were resuspended at […] and passed through a […] before sorting.
Sphere assay: A reliable method of measuring the self-renewal capacity of cell population if the ability to be cultured as spheres in the absence of serum or attachment. CD44^high FaDu cancer stem cells were cultured in ultra low attachment plates in cancer stem cell media (DMEM/F12, B27 Neurobasal supplement, 20 ng/ml EGF, 10 ng/rnl FGF, 4 µg/ml insulin, and 0.4% BSA) to allow spheres formation. Typically, sphere formation was evaluated by microscopy after 10-14 days in culture and spheres with >50 cells were scored.

FaDu = assay: colony formation assay (cell viability determination); type: cell-based; conditions: Homo sapiens; FaDu cells, colonies counted after 7-10 days; read-out: colonyformation IC50
Procedure: Cell Culture: FaDu (ATCC, Manassas, Va.) was maintained in Dulbecco's Modified Eagle Medium (DMEM) (Invitrogen, Carlsbad, Calif.) supplemented with 10% fetal bovine serum (FBS) (Gemini Bio-Products, West Sacramento, Calif.) and 5% penicillin/streptomycin/amphotercin B (Invitrogen).
Cell Viability Determination: For colony formation assay, cells were plated in 6 well plates at 2000 cells per well. Twenty-four hours after plating, cells were treated with compound. Colonies were allowed to develop for 7-10 days, at which they were stained with modified Giemsa stain (Sigma). Stained colonies were then counted to determine IC50.

[3] = aqueous buffer, buffer solution pH 7.4, read-out: solubility pH 7.4
[4] = simulated gastric fluid, buffer solution pH 1.2, read-out: solubility pH 1.2

CCN(CC)CCNC(=O)c1c(C)[nH]c(/C=C2\C(=O)Nc3ccc(-c4cn(-c5ccccc5)nn4)cc32)c1C [Example 48]
solubility [1, 3]: < 0.3 µg/mL | solubility [1, 4]: 147 µg/mL (≈ 281 µM)

CCN(CC)CCNC(=O)c1c(C)[nH]c(/C=C2\C(=O)Nc3ccc(-c4ccc(-c5cccnc5)s4)cc32)c1C [Example 26]
solubility [1, 3]: < 0.5 µg/mL | solubility [1, 4]: > 200 µg/mL

CCN(CC)CCNC(=O)c1c(C)[nH]c(/C=C2\C(=O)Nc3ccc(C4CCN(C5CCN(C(C)=O)CC5)CC4)cc32)c1C [Example 45]
IC50 [2]: > 50 µM

CCN(CC)CCNC(=O)c1c(C)[nH]c(/C=C2\C(=O)Nc3ccc(C4CCN(c5ncccn5)CC4)cc32)c1C [Example 43]
IC50 [2]: 1.9 µM | solubility [1, 3]: 0.4 µg/mL (≈ 0.738 µM) | solubility [1, 4]: 163 µg/mL (≈ 301 µM)

Cc1[nH]c(/C=C2\C(=O)Nc3ccc(-c4cnn(-c5ccccn5)c4)cc32)c(C)c1C(=O)N1CCOCC1 [Example 30]
IC50 (FaDu): > 100 µM

CCN(CC)CCNC(=O)c1c(C)[nH]c(/C=C2\C(=O)Nc3ccc(-c4nnc(-c5ccccc5)o4)cc32)c1C [Example 53]
solubility [1, 3]: 61 µg/mL (≈ 116 µM) | solubility [1, 4]: > 200 µg/mL

CCN(CC)CCNC(=O)c1c(C)[nH]c(/C=C2\C(=O)Nc3ccc(-c4nc(-c5ccccc5)n[nH]4)cc32)c1C [Example 50]
solubility [1, 3]: 7 µg/mL (≈ 13.4 µM) | solubility [1, 4]: 154 µg/mL (≈ 294 µM)

CCN(CC)CCNC(=O)c1c(C)[nH]c(/C=C2\C(=O)Nc3ccc(C4CCN(C5CCOCC5)CC4)cc32)c1C [Example 12]
IC50 [2]: > 50 µM | solubility [1, 3]: > 200 µg/mL | solubility [1, 4]: > 200 µg/mL

Cc1[nH]c(/C=C2\C(=O)Nc3ccc(-c4cnn(-c5ccccn5)c4)cc32)c(C)c1C(=O)N1CCN(C)CC1 [Example 31]
IC50 [2]: 0.2 µM

Cc1nc(-c2ccccc2)oc1-c1ccc2c(c1)NC(=O)/C2=C\c1[nH]c(C)c(C(=O)N2CCN(C)CC2)c1C [Example 38]
IC50 (FaDu): 6.2 µM | IC50 [2]: 2 µM

CCN(CC)CCNC(=O)c1c(C)[nH]c(/C=C2\C(=O)Nc3ccc(-c4cc(-c5ccccc5)nn4C)cc32)c1C [Example 55]
solubility [1, 3]: 0.5 µg/mL (≈ 0.932 µM) | solubility [1, 4]: 43 µg/mL (≈ 80.1 µM)

CCN(CC)CCNC(=O)c1c(C)[nH]c(/C=C2\C(=O)Nc3ccc(C4CCN(c5ccccc5)CC4)cc32)c1C [Example 42]
solubility [1, 3]: 11 µg/mL (≈ 20.4 µM) | solubility [1, 4]: > 200 µg/mL

CCN(CC)CCNC(=O)c1c(C)[nH]c(/C=C2\C(=O)Nc3ccc(-c4nnc(-c5ccccc5)s4)cc32)c1C [Example 52]
solubility [1, 3]: 4 µg/mL (≈ 7.4 µM) | solubility [1, 4]: 163 µg/mL (≈ 301 µM)

CCN(CC)CCNC(=O)c1c(C)[nH]c(/C=C2\C(=O)Nc3ccc(-c4nc(-c5ccccc5)cs4)cc32)c1C [Example 51, (Z)—N-(2-(diethylamino)ethyl)-2,4-dimethyl-5-((2-oxo-5-(4-phenylthiazol-2-yl)indolin-3-ylidene)methyl)-1H-pyrrole-3-carboxamide]
solubility [1, 3]: < 0.5 µg/mL | solubility [1, 4]: > 200 µg/mL

CCN(CC)CCNC(=O)c1c(C)[nH]c(/C=C2\C(=O)Nc3ccc(-n4cc(-c5ccccc5)nn4)cc32)c1C [Example 49]
solubility [1, 3]: 13 µg/mL (≈ 24.8 µM) | solubility [1, 4]: 109 µg/mL (≈ 208 µM)

CCN(CC)CCNC(=O)c1c(C)[nH]c(/C=C2\C(=O)Nc3ccc(-c4cnc(-c5ccccc5)[nH]4)cc32)c1C [Example 41]
solubility [1, 3]: 0.3 µg/mL (≈ 0.574 µM) | solubility [1, 4]: 186 µg/mL (≈ 356 µM)
